Columns and labels:
[1] = system: SH-SY5Y; test: MTT cytotoxicity, SH-SY5Y; type: cell-based; details: Homo sapiens, read-out: IC50 (µM) Cancer Cell Lines SH-SY5Y
Source text: (§1) Cells and Materials. For the experiments, we used tumor cell cultures M-HeLa clone 11 (epithelioid carcinoma of the cervix, subline HeLa, clone M-HeLa), HuTu 80, human duodenal adenocarcinoma, Hep-2, human epithelial cells, SH-SY5Y, human neuroblast-like cells, A549, human lung adenocarcinoma, PA-1, human ovarian teratocarcinoma and MCF-7, a human mammary ductal adenocarcinoma from the collection of the Institute of Cytology, Russian Academy of Sciences (St. Petersburg, Russia); human liver cells (Chang liver) were from the collection and the Research Institute of Virology of the Russian Academy of Medical Sciences (Moscow, Russia).
(§2) MTT Assay. The cytotoxic effect on cells was determined using the colorimetric method of cell proliferation—the MTT test. NADP-H-dependent cellular oxidoreductase enzymes can, under certain conditions, reflect the number of viable cells. These enzymes reduce the tetrazolium dye (MTT) 3-(4,5-dimethylthiazol-2-yl)-2,5-diphenyl-tetrazolium bromide to insoluble blue-violet formazan, which crystallizes inside the cell. The amount of formed formazan is proportional to the number of cells with active metabolism. […] Optical density was recorded at 540 nm on an Invitrologic microplate reader (Novosibirsk, Russia). […]
(§3) Statistical analysis. The IC50 values were calculated using the MLA–Quest Graph™ IC50 Calculator (AAT Bioquest, Inc., Sunnyvale, CA, USA), 14 February 2022. […]

[2] = system: PA-1 cells; test: Cell glycolysis, Seahorse XF Glycolysis Stress Test (ECAR); type: cell-based, human; details: 100 μM
Source text: To investigate whether the cytotoxicity of 5a and 6a is related to their effects on metabolism, we quantified their inhibition of glycolysis in human ovarian teratocarcinoma PA-1 cells using Seahorse technology, which allows the rapid assessment of glycolytic metabolism in cells using a proton efflux rate assay (ECAR). It is well known that glucose in cells is converted to pyruvate and then either to lactate in the cytoplasm or CO2 and water in the mitochondria. As glucose is converted to lactate, protons are released into the extracellular environment to maintain intracellular pH homeostasis. This extracellular acidification is measured in real time and provides insight into the rate of glycolytic proton efflux. PA-1 cells are used for the study of glycolysis since a pronounced deregulation of cellular energy is observed in the case of ovarian cancer, mediating the growth, invasion and migration of tumor cells.
Measuring ECAR under these conditions provides the parameters presented in Figure 9c,d: the level of glycolysis and glycolytic capacity.
Determination of cell glycolysis. Cell glycolysis was measured with Seahorse XF Glycolysis Stress Test Kit and Seahorse Bioscience XF96 Extracellular Flux Analyzer (Agilent Technology, Boston, MA, USA). […] ECAR levels were examined and analyzed using Seahorse Bioscience XF96 Extracellular Flux Analyzer. […]

[3] = system: HuTu 80 cells; test: Intracellular ROS, CellROX Deep Red flow cytometry; type: cell-based, human; details: IC50/2 and IC50
Method: The apoptosis via the mitochondrial pathway also increases the production of reactive oxygen species (ROS). As mitochondria itself becomes the target of ROS, an increase in their production disrupts mitochondrial functions and culminates in irreversible cell damage. Therefore, the effect of lead compounds 6a and 5a at IC50/2 and IC50 concentrations on ROS production in HuTu 80 cells was evaluated using flow cytometry. […] Such an effect is not observed for intact cells in the presence of both compounds, indicating an increase in ROS production in cancer tissues.
Detection of Intracellular ROS. HuTU 80 cells were incubated with lead compounds at concentrations of IC50/2 and IC50 for 48 h. ROS generation was investigated using flow cytometry assay and CellROX® Deep Red flow cytometry kit. For this purpose, […] cells were harvested at 2000 rpm for 5 min and then washed twice with ice-cold PBS, followed by resuspension in 0.1 mL of medium without FBS, to which was added 0.2 μL of CellROX® Deep Red, which was followed by incubation at 37 °C for 30 min. The cells were washed three times and suspended in PBS. After that, the production of ROS in the cells was immediately monitored using flow cytometer (Guava easy Cyte, MERCK, Rahway, NJ, USA).

[4] = system: HuTu 80 cells; test: Induction of apoptosis, flow cytometry (annexin V-Alexa Fluor 647 / propidium iodide); type: cell-based, human; details: IC50/2 and IC50, 24 h
Method: The ability of the new compounds, proposed as antitumor agents, to induce cell death via apoptosis is a critical feature for their potential use in therapy. The apoptosis-inducing effects of lead compounds were investigated using flow cytometry at IC50/2 and IC50 concentrations on the HuTu 80 cell line (Figure 6A).
Cell Culture. HuTu 80 cells at 1 × 10^6 cells/well in a final volume of 2 mL were seeded into six-well plates. After 48 h of incubation, various concentrations of lead compounds were added to wells.
Cell Apoptosis Analysis. The cells were harvested at 2000 rpm for 5 min and were then washed twice with ice-cold PBS, and resuspended in binding buffer. Next, the samples were incubated with 5 μL of annexin V-Alexa Fluor 647 (Sigma-Aldrich, St Louis, MO, USA) and 5 μL of propidium iodide for 15 min at room temperature in the dark. Finally, the cells were analyzed using flow cytometry (Guava easy Cyte, MERCK, Rahway, NJ, USA) within 1 h. The experiments were repeated three times.

[5] = system: M-HeLa; test: MTT cytotoxicity, M-HeLa; type: cell-based, human; details: M-HeLa
Source text: as §1
MTT Assay. The cytotoxic effect on cells was determined using the colorimetric method of cell proliferation—the MTT test. NADP-H-dependent cellular oxidoreductase enzymes can, under certain conditions, reflect the number of viable cells. These enzymes reduce the tetrazolium dye (MTT) 3-(4,5-dimethylthiazol-2-yl)-2,5-diphenyl-tetrazolium bromide to insoluble blue-violet formazan, which crystallizes inside the cell. The amount of formed formazan is proportional to the number of cells with active metabolism. Cells were seeded on a 96-well Nunc plate at a concentration of 5 × 10^3 cells per well in a volume of 100 μL of medium and cultured in a CO2 incubator at 37 °C until a monolayer was formed. After the nutrient medium was removed, 100 µL of the test drug solutions at the given dilutions were added to the wells, which were prepared directly in the nutrient medium with the addition of 5% DMSO to improve solubility. After 48 h of incubation of the cells with the tested compounds, the nutrient medium was removed from the plates and 100 µL of the nutrient medium without serum with MTT at a concentration of 0.5 mg/mL was added and incubated for 4 h at 37 °C. Formazan crystals were added 100 µL of DMSO to each well. Optical density was recorded at 540 nm on an Invitrologic microplate reader (Novosibirsk, Russia). The experiments for all compounds were repeated three times.
Statistical analysis. The IC50 values were calculated using the MLA–Quest Graph™ IC50 Calculator (AAT Bioquest, Inc., Sunnyvale, CA, USA), 14 February 2022. Statistical analysis was performed with the Mann–Whitney test (p < 0.05). Tabular and graphical data contain averages and standard error.

[6] = system: A549; test: MTT cytotoxicity, A549; type: cell-based; details: Homo sapiens, read-out: IC50 (µM) Cancer Cell Lines A549
Source text: as §1, §2, §3

[7] = system: MCF-7; test: MTT cytotoxicity, MCF-7; type: cell-based; details: Homo sapiens, MCF7, read-out: IC50 (µM) Cancer Cell Lines MCF-7
Source text: as §1, §2, §3

[8] = system: PA-1; test: MTT cytotoxicity, PA-1; type: cell-based; details: Homo sapiens, read-out: IC50 (µM) Cancer Cell Lines PA-1
Source text: as §1, §2, §3

O=C(C[P+](c1ccccc1)(c1ccccc1)c1ccccc1)NCCC1c2c(ccc3ccccc23)Oc2ccc3ccccc3c21 [Compound 6a] was tested, and the IC50 [1] was 10.9 ± 0.23 µM, the “glycolysis (ECAR) at maximum concentration (in words)” value [2] was “completely blocking glycolysis” and the “ROS production, CellROX Deep Red fluorescence intensity (in words)” value [3] was “significant reliable increase”. The “apoptosis-inducing effect (in words)” value [4] was “dose-dependent apoptosis”, the IC50 ([5]; Homo sapiens, MTT, 48 h incubation, read-out: IC50 (µM) Cancer Cell Lines M-HeLa) was 11 ± 8.7 µM and the “times more effective than the reference drug sorafenib” value [5] was “three times more effective”. It also gave an IC50 [6] of 5.47 ± 0.07 µM, an IC50 [7] of 7.12 ± 0.76 µM and an IC50 [8] of 11.2 ± 1.36 µM.

Reference: paper PMC11203978, “Discovery of Di(het)arylmethane and Dibenzoxanthene Derivatives as Potential Anticancer Agents” (International Journal of Molecular Sciences, 2024)
